Test system: OP9 cells
Test: Test of myricetin promoting osteocalcin secretion
Format: cell-based, Murine
Conditions: 0.03125 mg/mL in differentiation culture medium, 7 days; blank group taken as 100%; ELISA of supernatant
Description: Experimental cell line: Murine bone marrow stromal cells (hereinafter referred to as OP9 cells) were used, and the OP9 cells were purchased from OP9 cell lines (ATCC CRL-2749™) from the American Type Culture Collection (ATCC®). Cell culture medium: It included […] (Minimum Essential Medium Alpha Medium, purchased from Gibco, product number: Cat. 12000-022), 20% of Fetal Bovine Serum (purchased from Gibco, Cat. 10437-028), and 1% of Penicillin-streptomycin (purchased from Gibco, Cat. 15240-062). Differentiation culture medium: It included 90% of DMEM (Dulbecco's modified Eagle's medium, purchased from Gibco, Cat. 12100-038) added with additional ingredients to make it include 10% of FBS (fetal bovine Serum, purchased from Gibco, 10438-026) and 1% of penicillin-streptomycin (purchased from Gibco, Cat. 15140122), 50 μM of ascorbic acid (purchased from Sigma), 10^−7 M of dexamethasome (purchased from Sigma), and 10 mM of β-glycerol (purchased from Sigma). ELISA Kit for Osteocalcin (OC): Brand: USCN; model: SEA471Mu. Flow cytometer: Purchased from BD Pharmingen Company, model: BDTM Accuri C6 Plus. […] The content of osteocalcin in the supernatant to be detected in each well was measured by the […] to promote osteocalcin secretion analysis. […]

O=c1c(O)c(-c2cc(O)c(O)c(O)c2)oc2cc(O)cc(O)c12 [myricetin]
relative osteocalcin secretion: 121.39%
